For test [1], the target named is T1, HCV RNA Polymerase, recombinant NS5B with C-terminal 21 amino acid deletion, genotype 1a strain H77 (Hepatitis C virus genotype 1a, UniProt P27958).
T1 construct: fused on or other part: C-terminal 6His-tag
In words: In vitro HCV RNA-dependent RNA polymerase inhibition assay, genotype 1a C-terminally truncated (delta21) enzyme. The test is classed as biochemical, HCV genotype 1a. The conditions noted are these: genotype 1a delta21 NS5B enzyme; read-out: IC50 in delta-21 1a enzyme inhibition assay. From the text:
(§1) Incorporation of [^33P]-GMP into RNA was followed by absorption of the biotin labelled RNA polymer by streptavidin containing SPA beads. A synthetic template consisting of biotinylated 13mer-oligoG hybridised to polyrC was used as a homopolymer substrate.
a) Genotype 1a C-Terminally Truncated (delta21) Enzyme
HCV RNA Polymerase [Recombinant NS5B with C-terminal 21 amino acid deletion and C-terminal 6His-tag (Ferrari et al. J. Virol, 73(2), 1999, 1649. ‘Characterization of soluble hepatitis C virus RNA-dependent RNA polymerase expressed in Escherichia coli.’) expressed in E. coli and purified to homogeneity] was added to 25 nM final concentration. Polymerase of genotype 1a was from strain H77 (Yanagi, M., Purcell, R. H., Emerson, S. U. & Bukh, J. (1997), Proceedings of the National Academy of Sciences, USA 94, 8738-8743) containing a sequence change from valine to isoleucine at position 180.
Reaction Conditions were 25 nM enzyme, 1.5 μg/ml oligo-rG13/poly-rC and 0.2 μCi α-^33P-GTP in 0.5 μM GTP (20 Ci/mMol), 20 mM Tris pH 7.5, 23 mM NaCl, 3 mM DTT, 5 mM MgCl2, 1 mM MnCl2.
Enzyme was diluted to 500 nM concentration in 20 mM Tris-HCl, pH 7.5, 25 mM NaCl and 3 mM DTT.
4× concentrated assay buffer mix was prepared using 1M Tris-HCl, pH7.5 (1 mL), 5M NaCl (0.25 mL), 1M DTT (0.12 mL) and Water (8.63 mL), Total 10 mL.
2× concentrated first reagent was prepared using 4× concentrated assay buffer mix (5 μL), 40 u/μL RNasin (0.1 μL), 20 μg/mL polyrC/biotinylated-oligoG (1.6 μL), 500 nM enzyme (1 μL) and Water (2.3 μL), Total 10 μl/well.
2× concentrated second reagent was prepared using 1M MgCl2 (0.1 μL), 1M MnCl2 (0.02 μL), 25 μM GTP (0.4 μL), α-[^33P]-GTP (10 μCi/μL, 0.02 μL) and water (9.5 μL), Total 10 μL/well.
The assay was set up using compound (1 μL in 100% DMSO), first reagent (10 μL), and second reagent (10 μL), Total 21 μL.
The reaction was performed in a U-bottomed, white, 96-well plate. The reaction was mixed on a plate-shaker, after addition of the Enzyme, and incubated for 1 h at 22° C. After this time, the reaction was stopped by addition of 60 μL 1.5 mg/ml streptavidin SPA beads (Amersham) in 0.1 M EDTA in PBS. The beads were incubated with the reaction mixture for 1 h at 22° C. after which 100 μL 0.1 M EDTA in PBS was added. The plate was sealed, mixed centrifuged and incorporated radioactivity determined by counting in a Trilux (Wallac) or Topcount (Packard) Scintillation Counter.
After subtraction of background levels without enzyme, any reduction in the amount of radioactivity incorporated in the presence of a compound, compared to that in the absence, was taken as a measure of the level of inhibition. Ten concentrations of compounds were tested in three- or fivefold dilutions. From the counts per minute, percentage of inhibition at highest concentration tested or IC50s for the compounds were calculated using GraFit 3, GraFit 4 or GraFit 5 (Erithacus Software Ltd.) software packages or a data evaluation macro for Excel based on XLFit Software (IDBS).

In test [2] the target is T2, HCV RNA Polymerase, recombinant full-length NS5B, genotype 1b (Hepatitis C virus genotype 1b, UniProt Q9WMX2).
T2 construct: Recombinant full-length NS5B; made in house
Nature of the test: In vitro HCV RNA-dependent RNA polymerase inhibition assay, genotype 1b full-length enzyme. It is filed as biochemical, HCV genotype 1b. The conditions noted are these: genotype 1b full-length NS5B enzyme. How it is done:
as §1
b) Genotype 1b Full-Length Enzyme
Reaction Conditions were 0.5 μM [^33P]-GTP (20 Ci/mMol), 1 mM Dithiothreitol, 20 mM MgCl2, 5 mM MnCl2, 20 mM Tris-HCl, pH7.5, 1.6 μg/mL polyC/0.256 μM biotinylated oligoG13, 10% glycerol, 0.01% NP-40, 0.2 u/μL RNasin and 50 mM NaCl.
HCV RNA Polymerase (Recombinant full-length NS5B (Lohmann et al, J. Virol. 71 (11), 1997, 8416. ‘Biochemical properties of hepatitis C virus NS5B RNA-dependent RNA polymerase and identification of amino acid sequence motifs essential for enzymatic activity’) expressed in baculovirus and purified to homogeneity) was added to 4 nM final concentration.
5× concentrated assay buffer mix was prepared using 1M MnCl2 (0.25 mL), glycerol (2.5 mL), 10% NP-40 (0.025 mL) and Water (7.225 mL), Total 10 mL.
2× concentrated enzyme buffer contained 1M-Tris-HCl, pH7.5 (0.4 mL), 5M NaCl (0.2 mL), 1M-MgCl2 (0.4 mL), glycerol (1 mL), 10% NP-40 (10 μL), 1M DTT (20 μL) and water (7.97 mL), Total 10 mL.
Substrate Mix was prepared using 5× Concentrated assay Buffer mix (4 μL), [^33P]-GTP (10 μCi/μL, 0.02 μL), 25 μM GTP (0.4 μL), 40 u/μL RNasin (0.1 μL), 20 μg/mL polyrC/biotinylated-oligoG (1.6 μL), and Water (3.94 μL), Total 10 μL.
Enzyme Mix was prepared by adding 1 mg/ml full-length NS5B polymerase (1.5 μL) to 2.81 mL 2×-concentrated enzyme buffer.
The Assay was set up using compound (1 μL), Substrate Mix (10 μL), and Enzyme Mix (added last to start reaction) (10 μL), Total 21 μL.
The reaction was performed in a U-bottomed, white, 96-well plate. The reaction was mixed on a plate-shaker, after addition of the Enzyme, and incubated for 1 h at 22° C. After this time, the reaction was stopped by addition of 40 μL 1.875 mg/ml streptavidin SPA beads in 0.1 M EDTA. The beads were incubated with the reaction mixture for 1 h at 22° C. after which 120 μL 0.1 M EDTA in PBS was added. The plate was sealed, mixed centrifuged and incorporated radioactivity determined by counting in a Trilux (Wallac) or Topcount (Packard) Scintillation Counter.
After subtraction of background levels without enzyme, any reduction in the amount of radioactivity incorporated in the presence of a compound, compared to that in the absence, was taken as a measure of the level of inhibition. Ten concentrations of compounds were tested in three- or fivefold dilutions. From the counts, percentage of inhibition at highest concentration tested or IC50s for the compounds were calculated using GraFit 3, GraFit 4 or GraFit 5 (Erithacus Software Ltd.) software packages or a data evaluation macro for Excel based on XLFit Software (IDBS).

T2 sequence (Q9WMX2 2420-3010): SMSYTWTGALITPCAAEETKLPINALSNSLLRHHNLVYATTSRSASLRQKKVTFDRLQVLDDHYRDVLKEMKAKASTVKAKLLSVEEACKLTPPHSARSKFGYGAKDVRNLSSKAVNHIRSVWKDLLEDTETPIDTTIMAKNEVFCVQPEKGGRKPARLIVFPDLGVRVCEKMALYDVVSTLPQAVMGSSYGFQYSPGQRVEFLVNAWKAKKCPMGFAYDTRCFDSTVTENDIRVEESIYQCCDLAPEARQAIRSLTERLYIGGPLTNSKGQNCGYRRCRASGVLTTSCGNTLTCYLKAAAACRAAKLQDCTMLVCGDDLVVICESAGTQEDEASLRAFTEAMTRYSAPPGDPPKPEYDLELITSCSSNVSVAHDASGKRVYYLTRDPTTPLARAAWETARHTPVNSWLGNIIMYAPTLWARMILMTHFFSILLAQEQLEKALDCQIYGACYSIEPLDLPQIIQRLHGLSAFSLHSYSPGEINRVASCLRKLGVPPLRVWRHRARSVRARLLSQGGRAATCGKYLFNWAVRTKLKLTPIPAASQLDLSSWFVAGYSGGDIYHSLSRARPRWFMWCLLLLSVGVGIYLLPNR
T1 sequence (P27958 2421-3011 V2599I, form open): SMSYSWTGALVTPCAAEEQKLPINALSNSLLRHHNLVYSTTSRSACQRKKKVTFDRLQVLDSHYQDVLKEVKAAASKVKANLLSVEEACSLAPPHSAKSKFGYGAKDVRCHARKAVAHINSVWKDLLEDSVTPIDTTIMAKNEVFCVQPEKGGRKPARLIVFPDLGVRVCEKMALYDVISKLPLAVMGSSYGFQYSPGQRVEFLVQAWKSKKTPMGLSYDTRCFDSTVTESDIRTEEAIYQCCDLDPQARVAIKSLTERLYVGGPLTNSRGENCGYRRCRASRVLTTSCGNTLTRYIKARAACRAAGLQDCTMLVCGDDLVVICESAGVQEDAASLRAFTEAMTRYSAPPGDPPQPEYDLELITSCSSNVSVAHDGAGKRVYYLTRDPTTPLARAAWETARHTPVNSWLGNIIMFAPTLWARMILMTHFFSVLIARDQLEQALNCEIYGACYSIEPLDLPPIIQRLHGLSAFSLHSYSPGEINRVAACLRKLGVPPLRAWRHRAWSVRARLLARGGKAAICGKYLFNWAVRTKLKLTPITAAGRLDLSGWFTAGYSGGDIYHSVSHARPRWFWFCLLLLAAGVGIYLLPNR

Turning to `COc1cc(C(=O)N2[C@@H](c3nccs3)[C@@H](c3cnccn3)C[C@@]2(CC(C)C)C(=O)O)ccc1C(C)(C)C` (racemic) [Compound A, rel-(2S,4S,5R)-2-Isobutyl-1-(4-tert-butyl-3-methoxybenzoyl)-4-(pyrazin-2-yl)-5-(1,3-thiazol-2-yl)pyrrolidine-2-carboxylic acid, reference compound], the results for the IC50 in test [1] and in test [2] were over 1000 nM and 100 to 500 nM, respectively.

Regarding `COc1cc(C(=O)N2[C@@H](c3nccs3)[C@@H](c3cnccn3)C[C@@]2(Cc2ccccn2)C(=O)O)ccc1C(C)(C)C` (racemic) [Compound C, rel-(2R,4S,5R)-1-(4-tert-Butyl-3-methoxybenzoyl)-2-(pyridin-2-ylmethyl)-4-(pyrazin-2-yl)-5-(1,3-thiazol-2-yl)pyrrolidine-2-carboxylic acid, reference compound], the IC50 is 150 to 1000 nM in test [1] and 100 to 500 nM in test [2].

Regarding `COc1cc(C(=O)N2[C@@H](c3nccs3)[C@@H](c3cnccn3)C[C@@]2(Cc2c[nH]cn2)C(=O)O)ccc1C(C)(C)C` (racemic) [Compound D, rel-(2R,4S,5R)-1-(4-tert-Butyl-3-methoxybenzoyl)-2-(1H-imidazol-4-yl-methyl)-4-(pyrazin-2-yl)-5-(1,3-thiazol-2-yl)-pyrrolidine-2-carboxylic acid, reference compound], the IC50 in test [1] is over 1000 nM; in test [2], 100 to 500 nM.

For the compound `COc1cc(C(=O)N2[C@@H](c3cncs3)[C@@H](c3cnccn3)C[C@@]2(CCSC)C(=O)O)ccc1C(C)(C)C` (racemic) [Compound E, rel-(2R,4S,5R)-1-(4-tert-Butyl-3-methoxybenzoyl)-2-(2-(methylthio)ethyl)-4-(pyrazin-2-yl)-5-(1,3-thiazol-5-yl)-pyrrolidine-2-carboxylic acid, reference compound], the IC50 in test [1] was over 1000 nM; in test [2], 100 to 500 nM.

For `COc1cc(C(=O)N2[C@@H](c3nccs3)[C@@H](c3cnccn3)C[C@@]2(CCS(C)(=O)=O)C(=O)O)ccc1C(C)(C)C` (racemic) [Compound F, rel-(2R,4S,5R)-1-(4-tert-Butyl-3-methoxybenzoyl)-2-(2-(methylsulphonyl)ethyl)-4-pyrazin-2-yl-5-(1,3-thiazol-2-yl)-pyrrolidine-2-carboxylic acid, reference compound], the IC50 in test [1] is over 1000 nM; in test [2], over 500 nM.

Turning to `COc1cc(C(=O)N2[C@@H](c3nccs3)[C@@H](c3cnccn3)C[C@@]2(Cc2ccccc2)C(=O)O)ccc1C(C)(C)C` (racemic) [Compound G, rel-(2R,4S,5R)-1-(4-tert-Butyl-3-methoxybenzoyl)-2-(phenylmethyl)-4-(pyrazin-2-yl)-5-(1,3-thiazol-2-yl)pyrrolidine-2-carboxylic acid, reference compound], the figures for the IC50 in test [1] and in test [2] were over 1000 nM and 100 to 500 nM, respectively.

Consider `COc1cc(C(=O)N2[C@@H](c3nccs3)[C@@H](c3cnccn3)C[C@@]2(Cc2cscn2)C(=O)O)ccc1C(C)(C)C` (racemic) [Example 1, rel-(2R,4S,5R)-1-(3-Methoxy-4-tert-butylbenzoyl)-4-(pyrazin-2-yl)-2-(1,3-thiazol-4-ylmethyl)-5-(1,3-thiazol-2-yl)pyrrolidine-2-carboxylic acid], for which the IC50 in test [1] was under 150 nM; in test [2], under 100 nM.

Consider `COc1cc(C(=O)N2[C@@H](c3nccs3)[C@@H](c3cnccn3)C[C@@]2(Cc2nccs2)C(=O)O)ccc1C(C)(C)C` (racemic) [Example 3, rel-(2R,4S,5R)-1-(3-Methoxy-4-tert-butylbenzoyl)-4-(pyrazin-2-yl)-2-(1,3-thiazol-2-ylmethyl)-5-(1,3-thiazol-2-yl)pyrrolidine-2-carboxylic acid], for which the IC50 in test [1] is under 150 nM; in test [2], under 100 nM.

On to `COc1cc(C(=O)N2[C@@H](c3ncc(C)s3)[C@@H](c3cnccn3)C[C@@]2(Cc2ccsn2)C(=O)O)ccc1C(C)(C)C` (racemic) [Example 5, rel-(2R,4S,5R)-1-(3-Methoxy-4-tert-butylbenzoyl)-5-(5-methyl-1,3-thiazol-2-yl)-4-(pyrazin-2-yl)-2-(1,2-thiazol-3-ylmethyl)pyrrolidine-2-carboxylic acid], for which the IC50 in test [1] is under 150 nM; in test [2], under 100 nM.

With `COc1cc(C(=O)N2[C@@H](c3nccs3)[C@@H](c3cnccn3)C[C@@]2(Cc2ccsn2)C(=O)O)ccc1C(C)(C)C` (racemic) [Example 7, rel-(2R,4S,5R)-1-(3-Methoxy-4-tert-butylbenzoyl)-4-(pyrazin-2-yl)-2-(1,2-thiazol-3-ylmethyl)-5-(1,3-thiazol-2-yl)pyrrolidine-2-carboxylic acid], the results for the IC50 in test [1] and in test [2] were under 150 nM and under 100 nM, respectively.

Consider `COc1cc(C(=O)N2[C@@H](c3ncc(C)s3)[C@@H](c3cnccn3)C[C@@]2(Cn2cccn2)C(=O)O)ccc1C(C)(C)C` (racemic) [Example 9, rel-(2R,4S,5R)-1-(3-Methoxy-4-tert-butylbenzoyl)-5-(5-methyl-1,3-thiazol-2-yl)-4-(pyrazin-2-yl)-2-(1H-pyrazol-1-ylmethyl)pyrrolidine-2-carboxylic acid], for which the IC50 is under 150 nM in test [1] and under 100 nM in test [2].

Values taken from patent US20090227600A1, “4-(PYRAZINE-2-YL) -PYRROLIDINE -2-CARBOXYLIC ACID COMPOUNDS AND DERIVATIVES THEREOF AS HEPATITIS C VIRUS INHIBITORS” (priority 2004, published 2009).
